Test results from ChEMBL document CHEMBL1201862, “PubChem BioAssay data set” (2004).
Calls of active or inactive are those of the source.

Legend:
[1] = target: Protein-tyrosine kinase 2-beta (Homo sapiens, UniProt Q14289);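 further: potency of inhibitors of PYK2 kinase phosphorylation of poly-GT substrate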
[2] = target: Major prion protein (Homo sapiens, UniProt P04156); type: functional, cell-based
[3] = target: Cytochrome P450 2D6 (Homo sapiens, UniProt P10635);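 further: CYP2D6 member of a cytochrome P450 panel assay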
[4] = target: Cytochrome P450 2C9 (Homo sapiens, UniProt P11712)
[5] = cells
[6] = Late stage counterscreen for inhibitors of Trypanosoma brucei methionyl tRNA synthetase (MetRS): Luminescence-based cell-based high throughput dose response assay to identify compounds that are cytotoxic to Jurkat human T lymphocyte cells.; type: functional
[7] = target: Peroxisome proliferator-activated receptor gamma/Nuclear receptor coactivator 1 (Homo sapiens, UniProt P37231); test: (§1) TR-FRET dose response biochemical High Throughput Screening assay for agonists of the steroid receptor coactivator 1 (SRC-1) recruitment by the peroxisome proliferator-activated receptor gamma (PPAR gamma): non-selective agonists. [Related pubchem assays (depositor defined):AID1300, AID1808, AID504735, AID631]; type: protein assay
[8] = target: Peroxisome proliferator-activated receptor gamma/Nuclear receptor coactivator 3 (Homo sapiens, UniProt P37231); test: as §1, with “3 (SRC-3)” for “1 (SRC-1)”, “assays: 1301 (Confirmation screen.), 1048 (Primary screen.)]” for “assays (depositor defined):AID1300, AID1808, AID504735, AID631]”; type: functional
[9] = target: Peroxisome proliferator-activated receptor gamma/Nuclear receptor coactivator 2 (Homo sapiens, UniProt P37231); test: TR-FRET dose response biochemical High Throughput Screening assay for agonists of the steroid receptor coactivator 2 (SRC-2) recruitment by the peroxisome proliferator-activated receptor gamma (PPAR gamma): non-selective agonists. [Related pubchem assays: 1297, 1032 ]; type: functional
[10] = target: T1, Protein skinhead-1 (Caenorhabditis elegans, UniProt P34707); type: functional
T1 sequence (P34707 whole entry): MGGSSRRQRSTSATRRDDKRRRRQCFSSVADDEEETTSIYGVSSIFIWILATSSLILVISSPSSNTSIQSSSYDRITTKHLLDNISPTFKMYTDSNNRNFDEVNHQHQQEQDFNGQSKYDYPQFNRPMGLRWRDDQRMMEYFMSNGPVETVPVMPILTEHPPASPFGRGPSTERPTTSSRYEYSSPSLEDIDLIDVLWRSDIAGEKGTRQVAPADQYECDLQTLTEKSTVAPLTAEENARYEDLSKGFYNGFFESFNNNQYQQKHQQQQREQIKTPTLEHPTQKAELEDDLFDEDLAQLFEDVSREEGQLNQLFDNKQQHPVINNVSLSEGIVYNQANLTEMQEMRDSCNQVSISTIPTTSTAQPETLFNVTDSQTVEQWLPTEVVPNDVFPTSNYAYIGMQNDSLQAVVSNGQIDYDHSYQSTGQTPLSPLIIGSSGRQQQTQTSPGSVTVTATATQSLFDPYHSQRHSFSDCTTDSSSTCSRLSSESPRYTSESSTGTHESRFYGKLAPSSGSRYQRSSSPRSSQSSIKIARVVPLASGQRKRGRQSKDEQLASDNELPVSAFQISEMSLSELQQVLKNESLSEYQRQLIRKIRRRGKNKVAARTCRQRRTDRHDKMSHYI

[11] = potency of ADAM10 substrate cleavage blockers – biochemical, QFRET, dose response (AID 743254);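 further: ADAM10 enzyme with the DM2 quenched FRET peptide as substrate; EDANS fluorescence gain as the protease cuts the substrate; inhibitor potency against ADAM10 proteolytic activity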
[12] = target: Disintegrin and metalloproteinase domain-containing protein 17 (Homo sapiens, UniProt P78536); test: inhibition of ADAM17 substrate cleavage – biochemical, quenched FRET substrate, counter-screen for ADAM10 exosite inhibitor project, dose response (AID 743253)
[13] = target: Protein Tat (Human immunodeficiency virus type 1 group M subtype B (isolate HXB2)(HIV-1), UniProt P04608); type: functional;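 further: tat binding to TAR RNA read out by fluorescence polarization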
[14] = HEK-293T cell viability reduction – luminescence, B-cell screen hits, cytotoxicity control for BCR NF-kB inhibitor project, dose response (AID 489021); type: functional, cell-based;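 further: HEK-293T cells carrying an NF-kB luciferase reporter; cells exposed to compound for about 14 hours before viability readout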
[15] = reduction of Shn3 3'UTR-driven luciferase in osteoblasts – cell-based, Clone20 osteoblasts, firefly luciferase, cherry-picked, dose response (AID 624132); type: functional;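 further: firefly luciferase luminescence from reporter carrying the Shn3 3'UTR in osteoblasts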
[16] = loss of viability in HepG2 cells – cell-based, CellTiter-Glo, cherry-picked, cytotoxicity control for Shn3 inhibitor project, dose response (AID 624134); type: functional
[17] = non-specific 3'UTR reporter inhibition in Clone20-Shn3RL – cell-based, Renilla luciferase, cherry-picked, counter-screen for Shn3 inhibitor project, dose response (AID 624133); type: functional
[18] = target: Galanin receptor type 3 (Homo sapiens, UniProt O60755); test: Fluorescence-based cell-based primary high throughput dose response assay to identify antagonists of the Galanin Receptor 3 (GalR3).; type: functional
[19] = cells; type: functional, cell-based; conditions: HEK-CNG
[20] = off-target signal loss in HeLa-CEM21 co-culture – HeLa F-luc CTL cells, cherry-picked, counter-screen for HIV-1 Env fusion inhibitor project, dose response (AID 652040); type: functional, cell-based;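 further: potency for signal decrease marking cytotoxic or nonspecific inhibition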
[21] = HIV-1 AD8 envelope cell-cell fusion blockers – cherry-pick, dose response (AID 652062); type: functional, cell-based;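 further: luciferase signal from cell-cell fusion driven by HIV-1 clade B AD8 Env; potency is for inhibitors of fusion seen as a drop in luminescence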
[22] = target: COUP transcription factor 2 (Homo sapiens, UniProt P24468); test: Luminescence-based cell-based high throughput dose response assay to identify inhibitors of COUP-TFII (NR2F2).; type: functional;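 further: HEK293 cells transiently cotransfected with COUP-TFII expression vector and reporter; luciferase reporter luminescence driven by COUP-TFII from the pX2-168 reporter plasmid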
[23] = target: Paired box protein Pax-8 (Homo sapiens, UniProt Q06710); test: PAX8 transcriptional activity inhibition in RMG-I – RMG-I cells, luciferase, cherry-pick, dose response (AID 687027); type: functional, cell-based;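 further: luciferase reporter driven by Pax8 target thyroperoxidase promoter measured by SteadyGlo luminescence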
[24] = target: NAD-dependent protein deacylase sirtuin-5, mitochondrial (Homo sapiens, UniProt Q9NXA8); test: blockers of sirtuin-5 peptide desuccinylation – biochemical, fluorescence imaging, cherry-pick, set 6, dose response (AID 720597)
[25] = OVCAR8 cell viability loss – plate reader, dry powder samples, PAX8 project, dose response (AID 743197); type: functional, cell-based; conditions: OVCAR-8
[26] = tested on: Vero; test: viability loss in Vero cells – cell-based, plate reader, cherry-pick samples, cytotoxicity control, dose response (AID 687020); type: functional; conditions: Chlorocebus sabaeus
[27] = toxicity toward immortalized ovarian surface epithelium – cell-based, plate reader, dry powder samples, cytotoxicity control for PAX8 inhibitor project, dose response (AID 743045); type: functional
[28] = OVCAR-3 cell viability loss – plate reader, dry powder samples, PAX8 inhibitor project, dose response (AID 743044); type: functional, cell-based
[29] = inhibitors acting on PAX2 in cells – cell-based, plate reader, dry powder samples, selectivity assay for PAX8 inhibitor project, dose response (AID 743048); type: functional;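 further: HEK293 cells carrying a WT1 promoter luciferase reporter driven by expressed Pax2; potency is for inhibition of Pax2 driven reporter signal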
[30] = PAX5 cellular inhibition readout – cell-based, plate reader, dry powder samples, selectivity assay for PAX8 inhibitor project, dose response (AID 743047); type: functional;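 further: HEK293 cells carrying a Pax5 driven CD19 promoter luciferase reporter; potency of inhibitors that lower reporter luminescence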
[31] = OV-90 cell viability loss – plate reader, dry powder, SA8, PAX8 inhibitor project, dose response (AID 743149); type: functional, cell-based
[32] = PAX8-dependent cell viability loss – plate reader, dry powder, dose response (AID 743049); type: functional, cell-based
[33] = IGROV1 cell killing – plate reader, dry powder samples, PAX8 inhibitor project, dose response (AID 743043); type: functional, cell-based; conditions: IGROV-1
[34] = general cell-killing toxicity readout – plate reader, dry powder samples, cytotoxicity control for PAX8 inhibitor project, dose response (AID 743021); type: functional, cell-based
[35] = anti-trypanosomal activity in BESM host cells – imaging, CA-I/72 strain, bovine embryo skeletal muscle, dry powder, dose response (AID 651885); type: functional, cell-based

CCc1nc(SCC(=O)NNC(=O)C2CCCCC2)c2ccccc2n1
IC50 [1]: > 69.5 µM (not active) | IC50 [2]: 1.18 µM (active) | AC50 [3]: inconclusive | AC50 [4]: inconclusive | IC50 [5]: > 138 µM (inactive)

O=C(CCC(=O)Nc1cccc([N+](=O)[O-])c1)NN=Cc1cccs1
IC50 [6]: > 83.3 µM (inactive)

COc1ccc2nc(SCC(=O)Nc3ccc(S(=O)(=O)N4CCCC4)cc3)c(C#N)cc2c1
EC50 [7]: 7.32 µM (active) | EC50 [8]: > 26.5 µM (not active) | EC50 [9]: 7.11 µM (active) | IC50 [10]: > 100 µM (inactive) | IC50 [11]: > 69.5 µM (inactive) | IC50 [12]: > 69.5 µM (inactive)

COC(=O)C(C)Sc1nnc(Cc2cc(O)nc(O)n2)n1-c1cc(C)ccc1C (stereo not given)
IC50 [13]: > 100 µM (active)

Cc1cc(C)c(CN2CCN(C(=O)Cn3cnc4c(NCc5ccccc5)ncnc43)CC2)c(C)c1
IC50 [14]: > 80 µM (inactive) | AC50 [15]: 0.417 µM (active) | AC50 [16]: 0.773 µM (active) | AC50 [17]: 0.818 µM (active) | IC50 [18]: 0.363 µM (active) | EC50 [19]: > 29.9 µM (inactive) | AC50 [20]: 27.3 µM (active) | AC50 [21]: 1.59 µM (active) | IC50 [22]: 2.71 µM (active)

C[C@@H]1CCCCO[C@H](CN(C)Cc2ccc(C(F)(F)F)cc2)[C@@H](C)CN([C@@H](C)CO)C(=O)c2cc(NS(=O)(=O)c3ccccc3)ccc2O1
AC50 [23]: 4.17 µM (active) | AC50 [24]: 23.5 µM (active) | AC50 [25]: 67.5 µM (active)

C[C@@H]1CCCCO[C@H](CN(C)Cc2ccc(C(F)(F)F)cc2)[C@H](C)CN([C@@H](C)CO)C(=O)c2cc(NC(=O)c3ccccc3)ccc2O1
AC50 [26]: 28.7 µM (active) | AC50 [23]: 19.1 µM (active) | AC50 [27]: 42.4 µM (active) | AC50 [28]: 33.2 µM (active) | AC50 [25]: 17.8 µM (active)

C[C@H]1CN([C@@H](C)CO)C(=O)Cc2cc(NC(=O)NC3CCCCC3)ccc2O[C@@H]1CN(C)Cc1ccc(-c2ccccc2)cc1
AC50 [23]: 14.5 µM (active) | AC50 [29]: 19.3 µM (active) | AC50 [30]: 20.8 µM (active) | AC50 [31]: > 70 µM (inactive) | AC50 [32]: > 70 µM (inactive)

C[C@@H]1CCCCO[C@H](CN(C)Cc2ccc(Cl)c(Cl)c2)[C@@H](C)CN([C@@H](C)CO)C(=O)c2cc(NS(=O)(=O)c3ccccc3)ccc2O1
AC50 [23]: 5 µM (active) | AC50 [28]: 21.2 µM (active) | AC50 [33]: 44.6 µM (active) | AC50 [34]: 2.38 µM (active)

CC(C)N1C[C@H](C)[C@@H](CN(C)C(=O)OC(C)(C)C)Oc2c(NC(=O)c3ccccc3)cccc2C1=O
IC50 [35]: > 20 µM (inactive)
